Values after ≈ are worked out from the molar mass of the structure shown. Active and inactive are the calls of the source. The calls are words filed in the database; no cut-off is given here.
Tests used:
Assay type in all cases: functional
Staphylococcus aureus [1] = assay: Antimicrobial activity against Staphylococcus aureus MTCC 96 assessed as inhibition zone measured after 24 hrs incubation by well diffusion method
Bacillus subtilis [2] = assay: Antimicrobial activity against Bacillus subtilis MTCC 121 assessed as inhibition zone measured after 24 hrs incubation by well diffusion method
Staphylococcus aureus [3] = assay: Antimicrobial activity against Staphylococcus aureus MLS-16 MTCC 2940 assessed as inhibition zone measured after 24 hrs incubation by well diffusion method
Pseudomonas aeruginosa = assay: Antimicrobial activity against Pseudomonas aeruginosa MTCC 2453 assessed as inhibition zone measured after 24 hrs incubation by well diffusion method
Candida albicans = assay: Antimicrobial activity against Candida albicans MTCC 3017 assessed as inhibition zone measured after 24 hrs incubation by well diffusion method
Micrococcus luteus [4] = assay: Antimicrobial activity against Micrococcus luteus MTCC 2470 assessed as inhibition zone measured after 24 hrs incubation by well diffusion method
Raoultella planticola [5] = assay: Antimicrobial activity against Klebsiella planticola MTCC 530 assessed as inhibition zone measured after 24 hrs incubation by well diffusion method
Escherichia coli [6] = assay: Antimicrobial activity against Escherichia coli MTCC 739 assessed as inhibition zone measured after 24 hrs incubation by well diffusion method
Bacillus subtilis [7] = assay: Bactericidal activity against Bacillus subtilis MTCC 121 assessed as bacterial killing after 24 hrs incubation by NCCLS protocol-based broth microdilution method
Micrococcus luteus [8] = assay: Bactericidal activity against Micrococcus luteus MTCC 2470 assessed as bacterial killing after 24 hrs incubation by NCCLS protocol-based broth microdilution method
Raoultella planticola [9] = assay: Bactericidal activity against Klebsiella planticola MTCC 530 assessed as bacterial killing after 24 hrs incubation by NCCLS protocol-based broth microdilution method
Escherichia coli [10] = assay: Bactericidal activity against Escherichia coli MTCC 739 assessed as bacterial killing after 24 hrs incubation by NCCLS protocol-based broth microdilution method

SMILES	MIC (Staphylococcus aureus [1])	MIC (Bacillus subtilis [2])	MIC (Staphylococcus aureus [3])	MIC (Pseudomonas aeruginosa)	MIC (Candida albicans) [µg/mL]	MIC (Micrococcus luteus [4])	MIC (Raoultella planticola [5])	MIC (Escherichia coli [6])	MBC (Bacillus subtilis [7])	MBC (Micrococcus luteus [8]) [µg/mL]	MBC (Raoultella planticola [9]) [µg/mL]	MBC (Escherichia coli [10])
COC(=O)C1(C#N)Oc2c(c(=O)oc3ccccc23)C1c1ccc(Br)cc1 (stereo unspecified)	> 250 µg/mL	> 250 µg/mL	> 250 µg/mL	> 250 µg/mL	> 250	> 250 µg/mL	> 250 µg/mL	12.5 µg/mL (≈ 29.3 µM)	–	–	–	–
Clc1ccc(COC(Cn2ccnc2)c2ccc(Cl)cc2Cl)c(Cl)c1 (stereo unspecified) [MICONAZOLE]	inactive	inactive	inactive	inactive	7.8 (≈ 18.7 µM)	inactive	inactive	inactive	–	–	–	–
CCOC(=O)C1(C#N)Oc2c(c(=O)oc3ccccc23)C1c1ccccc1 (stereo unspecified)	> 250 µg/mL	> 250 µg/mL	> 250 µg/mL	> 250 µg/mL	> 250	> 250 µg/mL	> 250 µg/mL	> 250 µg/mL	–	–	–	–
CCOC(=O)C1(C#N)Oc2c(c(=O)oc3ccccc23)C1c1cccc2ccccc12 (stereo unspecified)	> 250 µg/mL	> 250 µg/mL	> 250 µg/mL	> 250 µg/mL	> 250	> 250 µg/mL	> 250 µg/mL	> 250 µg/mL	–	–	–	–
CC(C)OC(=O)C1(C#N)Oc2c(c(=O)oc3ccccc23)C1c1ccccc1 (stereo unspecified)	125 µg/mL (≈ 333 µM)	250 µg/mL (≈ 666 µM)	125 µg/mL (≈ 333 µM)	> 250 µg/mL	> 250	15.6 µg/mL (≈ 41.6 µM)	15.6 µg/mL (≈ 41.6 µM)	> 250 µg/mL	inactive	62.5 (≈ 166 µM)	62.5 (≈ 166 µM)	inactive
CCOC(=O)C1(C#N)Oc2c(c(=O)oc3ccccc23)C1c1ccc([N+](=O)[O-])cc1 (stereo unspecified)	> 250 µg/mL	> 250 µg/mL	> 250 µg/mL	> 250 µg/mL	> 250	> 250 µg/mL	> 250 µg/mL	> 250 µg/mL	–	–	–	–
COC(=O)C1(C#N)Oc2c(c(=O)oc3ccc(C)cc23)C1c1ccccc1 (stereo unspecified)	> 250 µg/mL	> 250 µg/mL	> 250 µg/mL	> 250 µg/mL	> 250	> 250 µg/mL	> 250 µg/mL	> 250 µg/mL	–	–	–	–
COC(=O)C1(C#N)Oc2c(c(=O)oc3ccccc23)C1c1ccc(C(F)(F)F)cc1 (stereo unspecified)	> 250 µg/mL	> 250 µg/mL	> 250 µg/mL	> 250 µg/mL	> 250	> 250 µg/mL	> 250 µg/mL	> 250 µg/mL	–	–	–	–
COC(=O)C1(C#N)Oc2c(c(=O)oc3ccccc23)C1c1ccc(F)cc1 (stereo unspecified)	62.5 µg/mL (≈ 171 µM)	7.8 µg/mL (≈ 21.4 µM)	62.5 µg/mL (≈ 171 µM)	> 250 µg/mL	62.5 (≈ 171 µM)	7.8 µg/mL (≈ 21.4 µM)	7.8 µg/mL (≈ 21.4 µM)	15.6 µg/mL (≈ 42.7 µM)	62.5 µg/mL (≈ 171 µM)	62.5 (≈ 171 µM)	62.5 (≈ 171 µM)	62.5 µg/mL (≈ 171 µM)
COC(=O)C1(C#N)Oc2c(c(=O)oc3ccccc23)C1c1ccc(O)cc1 (stereo unspecified)	> 250 µg/mL	> 250 µg/mL	> 250 µg/mL	> 250 µg/mL	> 250	> 250 µg/mL	> 250 µg/mL	> 250 µg/mL	–	–	–	–
COC(=O)C1(C#N)Oc2c(c(=O)oc3ccccc23)C1c1ccc(Cl)cc1Cl (stereo unspecified)	> 250 µg/mL	> 250 µg/mL	> 250 µg/mL	> 250 µg/mL	> 250	> 250 µg/mL	> 250 µg/mL	> 250 µg/mL	–	–	–	–
COC(=O)C1(C#N)Oc2c(c(=O)oc3ccccc23)C1c1ccc(C#N)cc1 (stereo unspecified)	> 250 µg/mL	> 250 µg/mL	> 250 µg/mL	> 250 µg/mL	> 250	> 250 µg/mL	> 250 µg/mL	> 250 µg/mL	–	–	–	–
O=C(O)c1cn(C2CC2)c2cc(N3CCNCC3)c(F)cc2c1=O [CIPROFLOXACIN]	0.9 µg/mL (≈ 2.72 µM)	0.9 µg/mL (≈ 2.72 µM)	0.9 µg/mL (≈ 2.72 µM)	0.9 µg/mL (≈ 2.72 µM)	–	0.9 µg/mL (≈ 2.72 µM)	0.9 µg/mL (≈ 2.72 µM)	0.9 µg/mL (≈ 2.72 µM)	1.17 µg/mL (≈ 3.53 µM)	1.17 (≈ 3.53 µM)	1.17 (≈ 3.53 µM)	1.17 µg/mL (≈ 3.53 µM)
COC(=O)C1(C#N)Oc2c(c(=O)oc3ccccc23)C1c1ccccc1 (stereo unspecified)	> 250 µg/mL	62.5 µg/mL (≈ 180 µM)	> 250 µg/mL	> 250 µg/mL	> 250	> 250 µg/mL	> 250 µg/mL	> 250 µg/mL	–	–	–	–
COC(=O)C1(C#N)Oc2c(c(=O)oc3ccccc23)C1c1ccc([N+](=O)[O-])cc1 (stereo unspecified)	> 250 µg/mL	> 250 µg/mL	> 250 µg/mL	> 250 µg/mL	> 250	> 250 µg/mL	> 250 µg/mL	> 250 µg/mL	–	–	–	–
CCOC(=O)C1(C#N)Oc2c(c(=O)oc3ccc(C)cc23)C1c1ccccc1 (stereo unspecified)	> 250 µg/mL	> 250 µg/mL	> 250 µg/mL	> 250 µg/mL	> 250	> 250 µg/mL	250 µg/mL (≈ 666 µM)	> 250 µg/mL	–	–	–	–
CCOC(=O)C1(C#N)Oc2c(c(=O)oc3ccccc23)C1c1ccc(C(F)(F)F)cc1 (stereo unspecified)	> 250 µg/mL	250 µg/mL (≈ 582 µM)	> 250 µg/mL	> 250 µg/mL	> 250	> 250 µg/mL	250 µg/mL (≈ 582 µM)	> 250 µg/mL	–	–	–	–
COC(=O)C1(C#N)Oc2c(c(=O)oc3ccccc23)C1c1ccc(Cl)cc1 (stereo unspecified)	> 250 µg/mL	> 250 µg/mL	> 250 µg/mL	> 250 µg/mL	> 250	> 250 µg/mL	> 250 µg/mL	62.5 µg/mL (≈ 164 µM)	–	–	–	–
COC(=O)C1(C#N)Oc2c(c(=O)oc3ccccc23)C1c1cc(OC)c(OC)c(OC)c1 (stereo unspecified)	62.5 µg/mL (≈ 143 µM)	> 250 µg/mL	> 250 µg/mL	> 250 µg/mL	> 250	> 250 µg/mL	> 250 µg/mL	> 250 µg/mL	–	–	–	–
COC(=O)C1(C#N)Oc2c(c(=O)oc3ccccc23)C1c1ccc(C)cc1 (stereo unspecified)	> 250 µg/mL	> 250 µg/mL	> 250 µg/mL	> 250 µg/mL	> 250	125 µg/mL (≈ 346 µM)	> 250 µg/mL	> 250 µg/mL	–	–	–	–
